Results reported in patent US11267826B2, “Penicillin-binding protein inhibitors” (priority 2017, dated 2022).

Tests used:
E. coli PBP2 = biological target: T1, E. coli PBP2 (Escherichia coli, UniProt P0AD65); assay: Bocillin FL competition binding assay, PBP2; parameters: species or system Escherichia coli K12; conditions: 15 min pre-incubation
T1 construct: 100 μg's of total membrane protein extracts containing PBPs; endogenous in cells; host or cells: Escherichia coli K12, membrane protein fraction
Procedure: (§1) To determine the ability of test compounds to bind Penicillin Binding Proteins (PBPs), a competition binding assay using Bocillin FL (fluorescent derivative of penicillin V) was adapted from the classical method used to assess PBP potency of beta-lactams.
(§2) Penicillin binding proteins were isolated from Escherichia coli K12 by growth of Escherichia coli K12 from a single colony in 4 L of Luria-Bertani (LB) broth at 35° C. and 250 rpm to an OD600 nm of 0.5. The cells were harvested by centrifugation at 7,000×g for 10 min. at 4° C. Cells were resuspended and washed in 50 mM potassium phosphate pH 7.5. The cells were re-suspended in sonication buffer [50 mM Tris-HCl pH 7.5, 1 mM MgCl2, 1 mM beta-mercaptoethanol, and 5 μg/mL DNAse I] and sonicated by 4 passes of 30 seconds at 45 W on ice. The sample was clarified by centrifugation at 3,000×g to remove cell debris and unbroken cells and supernatant containing the membrane proteins was retained. The membrane proteins including the PBPs were further purified from soluble constituents by an ultracentrifugation step at 100,000×g for 30 min. at 4° C. The membrane proteins are washed twice with 10 mM sodium phosphate pH 7, resuspended in a volume of 5 mL, quantitated by BCA assay, adjusted to […] and frozen at −80° C. until use.
(§3) The adapted Bocillin FL competition binding method described herein incorporates a 15 min. pre-incubation of test compound with isolated PBPs to attempt to balance the difference in mechanism of inhibition between beta-lactams (largely irreversible covalent bond to active site Serine) and the boron-containing PBP inhibitor test compounds (reversible covalent bond to active site Serine). Briefly, 50 μL reactions consisted of 100 μg's of total membrane protein extracts containing PBPs incubated with a dilution series of test compound ranging from 0.005 μg/mL to 2,480 μg/mL in 10 mM sodium phosphate pH7 containing 350 mM NaCl. Thirty minute reactions at 35° C. were initiated by addition of […] Bocillin FL, quenched by addition of SDS-PAGE loading buffer containing sodium dodecyl sulfate (SDS) and heated for 15 minutes at 95° C. to denature proteins in preparation for SDS-polyacrylamide gel electrophoresis. The Bocillin FL labeled PBPs are then separated by SDS-PAGE in Novex NuPage 10% Bis-Tris pre-cast gels (Invitrogen). The SDS-PAGE gel, post-electrophoresis, is then washed in water to remove excess SDS for 10 minutes at room temperature and placed on the scanning bed of a GE Healthcare/Amersham Biosciences Storm 860 fluorescence scanner. The excitation wavelength is in the blue spectrum at 450 nm and the emission at 520 nm is captured by the instrument. Effective PBP inhibitors are detected by a reduction in Bocillin FL labeling of the particular PBP over the dose range of test compound in a dose-responsive manner. High molecular weight PBP 1a/1b are not resolved by these gels, thus we report HMW PBP binding results in μg/mL for PBPs 1a/1b combined as well as for PBP2 and PBP3.
(§4) Representative results are shown in Table 2, where A represents a potency of >1000 μg/mL, B represents a potency between 64 and 1000 μg/mL inclusive, and C represents a potency of <64 μg/mL. NT=Not Tested.

S. aureus ATCC 29213 = assay: Broth microdilution MIC assay, S. aureus; assay type: cell-based; conditions: Staphylococcus aureus, ATCC29213; broth microdilution, 16-20 hours at 37° C.; read-out: S. aureus 29213 MIC
Outline: (§5)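 CLSI broth microdilution in cation-supplemented Mueller-Hinton broth; 2-fold serial compound dilutions inoculated at 5×10^5 CFU/mL from 3-5 h log-phase cultures. Plates incubated 16-20 hours at 37° C. MIC read visually as lowest concentration with no bacterial growth.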

E. coli K12 PBP1a/b = assay: Bocillin FL competition binding assay, PBP1a/1b combined; parameters: species or system Escherichia coli K12; conditions: 15 min pre-incubation, PBP 1a/1b combined
Procedure: as §1, §2, §3, §4

[1] = test system: hyper-permeable E. coli 901C; assay: Broth microdilution MIC assay, hyper-permeable E. coli; assay type: cell-based; conditions: Escherichia coli, read-out: E. coli 901C MIC
Outline: as §5

E. coli PBP3 = biological target: T2, E. coli PBP3 (Escherichia coli, UniProt P0AD68); assay: Bocillin FL competition binding assay, PBP3; parameters: species or system Escherichia coli K12; conditions: 15 min pre-incubation
T2 construct: 100 μg's of total membrane protein extracts containing PBPs; endogenous in cells; host or cells: Escherichia coli K12, membrane protein fraction
Procedure: as §1, §2, §3, §4

T1 sequence (P0AD65 whole entry): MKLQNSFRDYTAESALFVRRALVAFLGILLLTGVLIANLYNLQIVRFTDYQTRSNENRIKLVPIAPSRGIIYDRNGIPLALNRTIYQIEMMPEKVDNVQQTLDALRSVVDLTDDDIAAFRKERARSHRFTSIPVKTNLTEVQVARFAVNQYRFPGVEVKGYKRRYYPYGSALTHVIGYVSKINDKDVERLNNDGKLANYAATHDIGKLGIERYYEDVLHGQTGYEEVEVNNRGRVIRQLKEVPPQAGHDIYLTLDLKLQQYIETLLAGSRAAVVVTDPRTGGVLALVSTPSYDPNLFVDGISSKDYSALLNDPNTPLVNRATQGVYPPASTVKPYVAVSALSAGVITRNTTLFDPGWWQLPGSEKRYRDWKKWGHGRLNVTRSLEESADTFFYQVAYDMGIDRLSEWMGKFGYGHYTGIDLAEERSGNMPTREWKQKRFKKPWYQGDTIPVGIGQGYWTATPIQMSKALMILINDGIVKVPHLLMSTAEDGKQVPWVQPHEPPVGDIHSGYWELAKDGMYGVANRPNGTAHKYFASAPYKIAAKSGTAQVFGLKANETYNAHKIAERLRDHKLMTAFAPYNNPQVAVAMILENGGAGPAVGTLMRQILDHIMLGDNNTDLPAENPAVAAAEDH
T2 sequence (P0AD68 1-577): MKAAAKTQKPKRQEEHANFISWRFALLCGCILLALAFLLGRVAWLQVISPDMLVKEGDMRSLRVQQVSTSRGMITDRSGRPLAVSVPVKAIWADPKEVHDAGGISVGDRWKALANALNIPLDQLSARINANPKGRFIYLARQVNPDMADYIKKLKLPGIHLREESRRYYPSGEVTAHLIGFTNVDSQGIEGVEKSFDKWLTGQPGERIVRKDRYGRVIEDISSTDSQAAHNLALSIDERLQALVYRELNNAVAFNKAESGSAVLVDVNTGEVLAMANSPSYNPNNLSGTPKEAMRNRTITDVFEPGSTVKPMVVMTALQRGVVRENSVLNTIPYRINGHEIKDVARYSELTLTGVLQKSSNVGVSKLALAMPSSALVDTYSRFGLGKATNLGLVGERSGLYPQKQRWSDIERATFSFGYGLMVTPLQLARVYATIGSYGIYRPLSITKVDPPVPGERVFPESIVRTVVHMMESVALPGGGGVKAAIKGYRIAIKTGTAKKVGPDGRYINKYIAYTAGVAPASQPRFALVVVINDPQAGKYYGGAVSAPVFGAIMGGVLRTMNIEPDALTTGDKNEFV

Structure (SMILES): Nc1nc(/C(=N/O)C(=O)N[C@H]2Cc3cc(CO)cc(C(=O)O)c3OB2O)cs1 [Example 35, (R,Z)-3-(2-(2-aminothiazol-4-yl)-2-(hydroxyimino)acetamido)-2-hydroxy-6-(hydroxymethyl)-3,4-dihydro-2H-benzo[e][1,2]oxaborinine-8-carboxylic Acid]
- E. coli PBP2 Potency (E. coli PBP2): A (A represents a potency of >1000 μg/mL)
- MIC (S. aureus ATCC 29213): 64 to 128 µg/mL
- E. coli K12 PBP1a/b Potency (E. coli K12 PBP1a/b): C (C represents a potency of <64 μg/mL)
- MIC [1]: > 128 µg/mL
- E. coli PBP3 Potency (E. coli PBP3): B (B represents a potency between 64 and 1000 μg/mL inclusive)

Structure (SMILES): Nc1nc(/C(=N/O)C(=O)N[C@H]2Cc3cc(CCC(=O)O)cc(C(=O)O)c3OB2O)cs1 [Example 37, (R,Z)-3-(2-(2-aminothiazol-4-yl)-2-(hydroxyimino)acetamido)-6-(2-carboxyethyl)-2-hydroxy-3,4-dihydro-2H-benzo[e][1,2]oxaborinine-8-carboxylic Acid]
- E. coli PBP2 Potency (E. coli PBP2): C (C represents a potency of <64 μg/mL)
- MIC (S. aureus ATCC 29213): 64 to 128 µg/mL
- E. coli K12 PBP1a/b Potency (E. coli K12 PBP1a/b): B (B represents a potency between 64 and 1000 μg/mL inclusive)
- MIC [1]: < 64 µg/mL
- E. coli PBP3 Potency (E. coli PBP3): B (B represents a potency between 64 and 1000 μg/mL inclusive)

Structure (SMILES): Nc1nc(/C(=N/O)C(=O)N[C@H]2Cc3cc(F)c(F)c(C(=O)O)c3OB2O)cs1 [Example 41, (R,Z)-3-(2-(2-aminothiazol-4-yl)-2-(hydroxyimino)acetamido)-6,7-difluoro-2-hydroxy-3,4-dihydro-2H-benzo[e][1,2]oxaborinine-8-carboxylic Acid]
- E. coli PBP2 Potency (E. coli PBP2): B (B represents a potency between 64 and 1000 μg/mL inclusive)
- MIC (S. aureus ATCC 29213): 64 to 128 µg/mL
- E. coli K12 PBP1a/b Potency (E. coli K12 PBP1a/b): B (B represents a potency between 64 and 1000 μg/mL inclusive)
- MIC [1]: < 64 µg/mL
- E. coli PBP3 Potency (E. coli PBP3): B (B represents a potency between 64 and 1000 μg/mL inclusive)

Structure (SMILES): COc1cc2c(c(C(=O)O)c1)OB(O)[C@@H](NC(=O)/C(=N\O)c1csc(N)n1)C2 [Example 42, (R,Z)-3-(2-(2-aminothiazol-4-yl)-2-(hydroxyimino)acetamido)-2-hydroxy-6-methoxy-3,4-dihydro-2H-benzo[e][1,2]oxaborinine-8-carboxylic Acid]
- E. coli PBP2 Potency (E. coli PBP2): C (C represents a potency of <64 μg/mL)
- MIC (S. aureus ATCC 29213): < 64 µg/mL
- E. coli K12 PBP1a/b Potency (E. coli K12 PBP1a/b): C (C represents a potency of <64 μg/mL)
- MIC [1]: < 64 µg/mL
- E. coli PBP3 Potency (E. coli PBP3): C (C represents a potency of <64 μg/mL)

Structure (SMILES): Nc1nc(/C(=N/O)C(=O)N[C@H]2Cc3cc(Cl)cc(C(=O)O)c3OB2O)cs1 [Example 44, (R,Z)-3-(2-(2-aminothiazol-4-yl)-2-(hydroxyimino)acetamido)-6-chloro-2-hydroxy-3,4-dihydro-2H-benzo[e][1,2]oxaborinine-8-carboxylic Acid]
- E. coli PBP2 Potency (E. coli PBP2): B (B represents a potency between 64 and 1000 μg/mL inclusive)
- MIC (S. aureus ATCC 29213): < 64 µg/mL
- E. coli K12 PBP1a/b Potency (E. coli K12 PBP1a/b): B (B represents a potency between 64 and 1000 μg/mL inclusive)
- MIC [1]: < 64 µg/mL
- E. coli PBP3 Potency (E. coli PBP3): B (B represents a potency between 64 and 1000 μg/mL inclusive)

Structure (SMILES): N#Cc1ccc(OCCO/N=C(\C(=O)N[C@H]2Cc3cccc(C(=O)O)c3OB2O)c2csc(N)n2)cc1 [Example 46, (R,Z)-3-(2-(2-aminothiazol-4-yl)-2-((2-(4-cyanophenoxy)ethoxy)imino)acetamido)-2-hydroxy-3,4-dihydro-2H-benzo[e][1,2]oxaborinine-8-carboxylic Acid]
- E. coli PBP2 Potency (E. coli PBP2): C (C represents a potency of <64 μg/mL)
- MIC (S. aureus ATCC 29213): 64 to 128 µg/mL
- E. coli K12 PBP1a/b Potency (E. coli K12 PBP1a/b): C (C represents a potency of <64 μg/mL)
- MIC [1]: < 64 µg/mL
- E. coli PBP3 Potency (E. coli PBP3): B (B represents a potency between 64 and 1000 μg/mL inclusive)

Structure (SMILES): Nc1nc(/C(=N/OCCOc2ccccc2)C(=O)N[C@H]2Cc3cccc(C(=O)O)c3OB2O)cs1 [Example 50, (R,Z)-3-(2-(2-aminothiazol-4-yl)-2-((2-phenoxyethoxy)imino)acetamido)-2-hydroxy-3,4-dihydro-2H-benzo[e][1,2]oxaborinine-8-carboxylic Acid]
- E. coli PBP2 Potency (E. coli PBP2): B (B represents a potency between 64 and 1000 μg/mL inclusive)
- MIC (S. aureus ATCC 29213): 64 to 128 µg/mL
- E. coli K12 PBP1a/b Potency (E. coli K12 PBP1a/b): B (B represents a potency between 64 and 1000 μg/mL inclusive)
- MIC [1]: < 64 µg/mL
- E. coli PBP3 Potency (E. coli PBP3): B (B represents a potency between 64 and 1000 μg/mL inclusive)

Structure (SMILES): N=C(N)c1ccc(OCCO/N=C(\C(=O)N[C@H]2Cc3cccc(C(=O)O)c3OB2O)c2csc(N)n2)cc1 [Example 55, (R,Z)-3-(2-(2-aminothiazol-4-yl)-2-((2-(4-carbamimidoylphenoxy)ethoxy)imino)acetamido)-2-hydroxy-3,4-dihydro-2H-benzo[e][1,2]oxaborinine-8-carboxylic Acid]
- E. coli PBP2 Potency (E. coli PBP2): B (B represents a potency between 64 and 1000 μg/mL inclusive)
- MIC (S. aureus ATCC 29213): > 128 µg/mL
- E. coli K12 PBP1a/b Potency (E. coli K12 PBP1a/b): C (C represents a potency of <64 μg/mL)
- MIC [1]: < 64 µg/mL
- E. coli PBP3 Potency (E. coli PBP3): C (C represents a potency of <64 μg/mL)

Structure (SMILES): N#Cc1ccc(NC(=O)CO/N=C(\C(=O)N[C@H]2Cc3cccc(C(=O)O)c3OB2O)c2csc(N)n2)cc1 [Example 56, (R,Z)-3-(2-(2-aminothiazol-4-yl)-2-((2-((4-cyanophenyl)amino)-2-oxoethoxy)imino)acetamido)-2-hydroxy-3,4-dihydro-2H-benzo[e][1,2]oxaborinine-8-carboxylic Acid]
- E. coli PBP2 Potency (E. coli PBP2): C (C represents a potency of <64 μg/mL)
- MIC (S. aureus ATCC 29213): 64 to 128 µg/mL
- E. coli K12 PBP1a/b Potency (E. coli K12 PBP1a/b): B (B represents a potency between 64 and 1000 μg/mL inclusive)
- MIC [1]: < 64 µg/mL
- E. coli PBP3 Potency (E. coli PBP3): C (C represents a potency of <64 μg/mL)

Structure (SMILES): CNC(=O)CO/N=C(\C(=O)N[C@H]1Cc2cccc(C(=O)O)c2OB1O)c1csc(N)n1 [Example 57, (R,Z)-3-(2-(2-aminothiazol-4-yl)-2-((2-(methylamino)-2-oxoethoxy)imino)acetamido)-2-hydroxy-3,4-dihydro-2H-benzo[e][1,2]oxaborinine-8-carboxylic Acid]
- E. coli PBP2 Potency (E. coli PBP2): B (B represents a potency between 64 and 1000 μg/mL inclusive)
- MIC (S. aureus ATCC 29213): > 128 µg/mL
- E. coli K12 PBP1a/b Potency (E. coli K12 PBP1a/b): C (C represents a potency of <64 μg/mL)
- MIC [1]: < 64 µg/mL
- E. coli PBP3 Potency (E. coli PBP3): C (C represents a potency of <64 μg/mL)

Structure (SMILES): Nc1nc(/C(=N/OCC(=O)N2CCNCC2)C(=O)N[C@H]2Cc3cccc(C(=O)O)c3OB2O)cs1 [Example 58, (R,Z)-3-(2-(2-aminothiazol-4-yl)-2-((2-oxo-2-(piperazin-1-yl)ethoxy)imino)acetamido)-2-hydroxy-3,4-dihydro-2H-benzo[e][1,2]oxaborinine-8-carboxylic Acid]
- E. coli PBP2 Potency (E. coli PBP2): C (C represents a potency of <64 μg/mL)
- MIC (S. aureus ATCC 29213): > 128 µg/mL
- E. coli K12 PBP1a/b Potency (E. coli K12 PBP1a/b): B (B represents a potency between 64 and 1000 μg/mL inclusive)
- MIC [1]: < 64 µg/mL
- E. coli PBP3 Potency (E. coli PBP3): C (C represents a potency of <64 μg/mL)
